# Experimental data: ChEMBL document CHEMBL1157914, “5,5'-substituted indirubin-3'-oxime derivatives as potent cyclin-dependent kinase inhibitors with anticancer activity” (J Med Chem, 2010)
# The source made the active and inactive calls. The calls are words filed in the database; no cut-off is given here.
# How the values were obtained:
# [1] = Antiproliferative activity against human […] cells after 3 days by SRB assay; format: functional, cell-based; details: 72 h
# [2] = system: MCF7; experiment: Antiproliferative activity against human MCF7 cells after 3 days by SRB assay; format: functional, cell-based; details: MCF7, 72 h
# [3] = molecular target: Cyclin-dependent kinase 1/cyclin B1 (Homo sapiens) (UniProt P06493+P14635); experiment: Inhibition of CDK1/cyclin B at 1 uM after 40 mins by lequid scintillation counting; format: protein-complex assay
# Sequence of Cyclin-dependent kinase 1/cyclin B1 (Homo sapiens) (P06493 whole entry, looked up): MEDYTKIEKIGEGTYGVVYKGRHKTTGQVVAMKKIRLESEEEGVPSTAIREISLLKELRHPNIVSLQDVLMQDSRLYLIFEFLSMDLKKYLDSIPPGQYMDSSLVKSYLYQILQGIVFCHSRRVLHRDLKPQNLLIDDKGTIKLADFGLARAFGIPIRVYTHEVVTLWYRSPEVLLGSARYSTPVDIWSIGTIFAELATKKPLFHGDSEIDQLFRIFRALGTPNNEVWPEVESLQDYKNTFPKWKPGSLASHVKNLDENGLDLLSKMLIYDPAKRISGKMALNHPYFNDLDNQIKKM
# Sequence of Cyclin-dependent kinase 1/cyclin B1 (Homo sapiens) (P14635 whole entry, looked up): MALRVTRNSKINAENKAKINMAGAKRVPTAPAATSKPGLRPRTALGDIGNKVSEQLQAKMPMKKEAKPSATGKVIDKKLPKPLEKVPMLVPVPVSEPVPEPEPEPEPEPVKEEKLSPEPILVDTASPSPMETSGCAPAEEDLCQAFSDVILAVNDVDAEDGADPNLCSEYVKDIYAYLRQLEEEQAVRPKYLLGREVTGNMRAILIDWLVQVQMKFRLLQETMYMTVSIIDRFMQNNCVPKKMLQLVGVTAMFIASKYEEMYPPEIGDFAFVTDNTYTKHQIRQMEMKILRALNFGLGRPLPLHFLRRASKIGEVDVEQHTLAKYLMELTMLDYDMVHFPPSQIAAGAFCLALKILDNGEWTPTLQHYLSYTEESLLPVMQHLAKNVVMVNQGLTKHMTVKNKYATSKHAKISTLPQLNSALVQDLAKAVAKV
# [4] = system: K562; experiment: Antiproliferative activity against human K562 cells after 3 days by SRB assay; format: functional, cell-based; details: K562, 72 h
# [5] = molecular target: Cyclin-dependent kinase 2/cyclin E1 (Homo sapiens, UniProt P24941); experiment: Inhibition of CDK2/cyclin E; format: protein-complex assay
# [6] = system: KB; experiment: Antiproliferative activity against human KB cells after 3 days by SRB assay; format: functional, cell-based; details: 72 h
# [7] = system: SNU-638; experiment: Antiproliferative activity against human SNU638 cells after 3 days by SRB assay; format: functional, cell-based; details: SNU-638, 72 h
# [8] = system: HT-1080; experiment: Antiproliferative activity against human HT1080 cells after 3 days by SRB assay; format: functional, cell-based; details: HT-1080, 72 h
# [9] = molecular target: Cyclin-dependent kinase 2/cyclin E1 (Homo sapiens) (UniProt P24864+P24941); experiment: Inhibition of CDK2/cyclin E as percent residual activity; format: protein-complex assay; set-up: Residual activity / inhibition: concentration or dose not given beside the values
# [10] = system: A549; experiment: Antiproliferative activity against human A549 cells after 3 days by SRB assay; format: functional, cell-based; details: A549, 72 h
# [11] = Selectivity ratio for CDK2/cyclinE over CDK1/cyclin B
# [12] = Solubility of compound in 3 equimolar NaOH and 0.1 N NaHCO3 buffer; format: physicochemical
# [13] = Solubility of compound in 2 equimolar NaOH and distilled water; format: physicochemical; details: buffer
# [14] = Aqueous solubility of compound in water; format: physicochemical; details: buffer
# [15] = Solubility of compound in 3 equimolar NaOH and distilled water; format: physicochemical; details: buffer
# [16] = molecular target: Macrophage-stimulating protein receptor (Homo sapiens) (UniProt Q04912); experiment: Inhibition of recombinant Ron at 10 uM preincubated for 15 mins by HTRF assay
# Sequence of Macrophage-stimulating protein receptor (Homo sapiens) (Q04912 25-304 limits assumed): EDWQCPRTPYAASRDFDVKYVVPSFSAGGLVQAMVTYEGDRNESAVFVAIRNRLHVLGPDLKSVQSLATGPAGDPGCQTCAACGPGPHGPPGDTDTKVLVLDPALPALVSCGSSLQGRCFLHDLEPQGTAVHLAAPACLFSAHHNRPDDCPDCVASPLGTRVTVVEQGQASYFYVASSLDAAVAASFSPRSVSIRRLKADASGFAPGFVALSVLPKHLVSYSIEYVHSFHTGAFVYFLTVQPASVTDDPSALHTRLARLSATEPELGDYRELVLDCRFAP
# Sequence of Macrophage-stimulating protein receptor (Homo sapiens) (Q04912 310-1400 limits assumed): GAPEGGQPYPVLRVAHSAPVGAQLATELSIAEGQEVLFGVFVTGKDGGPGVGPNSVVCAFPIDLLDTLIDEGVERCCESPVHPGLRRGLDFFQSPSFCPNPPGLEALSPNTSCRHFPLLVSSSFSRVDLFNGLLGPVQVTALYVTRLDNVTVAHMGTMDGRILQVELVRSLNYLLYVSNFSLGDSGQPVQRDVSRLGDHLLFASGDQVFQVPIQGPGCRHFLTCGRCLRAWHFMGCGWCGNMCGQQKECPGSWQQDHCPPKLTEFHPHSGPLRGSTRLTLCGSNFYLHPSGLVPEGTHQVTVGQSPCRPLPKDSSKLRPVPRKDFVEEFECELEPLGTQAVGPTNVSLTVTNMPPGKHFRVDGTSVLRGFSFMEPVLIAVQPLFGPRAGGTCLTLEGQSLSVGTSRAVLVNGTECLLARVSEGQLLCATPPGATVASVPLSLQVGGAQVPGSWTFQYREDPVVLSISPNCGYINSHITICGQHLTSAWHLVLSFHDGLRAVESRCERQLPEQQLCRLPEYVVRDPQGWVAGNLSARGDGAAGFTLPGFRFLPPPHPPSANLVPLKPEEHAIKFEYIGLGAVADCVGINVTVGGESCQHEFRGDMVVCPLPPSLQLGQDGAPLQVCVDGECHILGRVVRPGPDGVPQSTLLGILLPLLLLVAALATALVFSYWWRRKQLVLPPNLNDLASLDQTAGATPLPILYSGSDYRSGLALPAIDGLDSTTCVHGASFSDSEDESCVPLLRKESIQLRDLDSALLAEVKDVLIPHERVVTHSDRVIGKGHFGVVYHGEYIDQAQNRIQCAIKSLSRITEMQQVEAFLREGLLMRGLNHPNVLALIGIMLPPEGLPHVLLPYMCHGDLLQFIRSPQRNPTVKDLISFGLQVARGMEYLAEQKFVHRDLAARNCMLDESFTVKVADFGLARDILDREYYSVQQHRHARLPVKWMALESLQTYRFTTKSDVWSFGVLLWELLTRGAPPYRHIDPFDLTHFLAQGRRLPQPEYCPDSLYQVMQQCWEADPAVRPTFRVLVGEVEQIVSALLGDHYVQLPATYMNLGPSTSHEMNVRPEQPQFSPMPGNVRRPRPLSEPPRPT
# [17] = molecular target: Vascular endothelial growth factor receptor 2 (Homo sapiens) (UniProt P35968); experiment: Inhibition of recombinant VEGFR2 at 10 uM preincubated for 15 mins by HTRF assay
# Sequence of Vascular endothelial growth factor receptor 2 (Homo sapiens) (P35968 whole entry): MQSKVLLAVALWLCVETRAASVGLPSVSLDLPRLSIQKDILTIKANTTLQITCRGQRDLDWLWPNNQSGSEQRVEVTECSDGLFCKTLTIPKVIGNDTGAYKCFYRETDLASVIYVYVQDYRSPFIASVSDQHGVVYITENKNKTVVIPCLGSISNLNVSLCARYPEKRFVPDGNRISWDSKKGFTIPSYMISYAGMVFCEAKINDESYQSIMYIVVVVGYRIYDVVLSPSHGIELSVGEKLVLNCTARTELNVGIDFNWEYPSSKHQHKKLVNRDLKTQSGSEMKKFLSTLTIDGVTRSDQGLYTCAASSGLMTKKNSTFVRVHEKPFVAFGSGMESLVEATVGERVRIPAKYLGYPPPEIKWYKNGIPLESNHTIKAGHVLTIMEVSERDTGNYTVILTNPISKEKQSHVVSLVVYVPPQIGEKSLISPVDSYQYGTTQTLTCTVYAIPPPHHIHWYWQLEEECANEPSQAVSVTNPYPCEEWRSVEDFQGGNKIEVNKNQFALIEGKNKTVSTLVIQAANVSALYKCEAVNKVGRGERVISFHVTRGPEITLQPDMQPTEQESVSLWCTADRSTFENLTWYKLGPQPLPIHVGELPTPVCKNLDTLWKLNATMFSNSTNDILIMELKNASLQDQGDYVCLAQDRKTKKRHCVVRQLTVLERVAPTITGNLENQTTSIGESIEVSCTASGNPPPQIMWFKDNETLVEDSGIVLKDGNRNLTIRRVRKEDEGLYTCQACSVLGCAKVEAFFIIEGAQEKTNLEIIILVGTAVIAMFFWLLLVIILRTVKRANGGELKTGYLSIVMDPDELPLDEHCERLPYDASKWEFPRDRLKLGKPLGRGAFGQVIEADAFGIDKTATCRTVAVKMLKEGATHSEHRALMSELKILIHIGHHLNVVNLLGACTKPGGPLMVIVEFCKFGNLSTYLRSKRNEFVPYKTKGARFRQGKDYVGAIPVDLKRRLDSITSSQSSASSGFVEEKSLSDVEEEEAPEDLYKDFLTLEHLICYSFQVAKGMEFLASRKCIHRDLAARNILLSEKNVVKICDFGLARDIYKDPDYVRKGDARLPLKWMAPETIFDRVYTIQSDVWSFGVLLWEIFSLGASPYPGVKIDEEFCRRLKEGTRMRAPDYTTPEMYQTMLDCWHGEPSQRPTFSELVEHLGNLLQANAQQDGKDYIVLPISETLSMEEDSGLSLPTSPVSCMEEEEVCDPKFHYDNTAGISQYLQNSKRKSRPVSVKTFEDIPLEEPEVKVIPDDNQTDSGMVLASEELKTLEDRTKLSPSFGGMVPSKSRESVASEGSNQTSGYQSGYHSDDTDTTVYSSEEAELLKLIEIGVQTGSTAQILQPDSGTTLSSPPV
# [18] = molecular target: Inhibitor of nuclear factor kappa-B kinase subunit beta (Homo sapiens) (UniProt O14920); experiment: Inhibition of recombinant IKK-beta at 10 uM preincubated for 15 mins by HTRF assay
# [19] = molecular target: Aurora kinase A (Homo sapiens) (UniProt O14965); experiment: Inhibition of recombinant auroraA at 10 uM preincubated for 15 mins by HTRF assay
# Sequence of Aurora kinase A (Homo sapiens) (O14965 whole entry): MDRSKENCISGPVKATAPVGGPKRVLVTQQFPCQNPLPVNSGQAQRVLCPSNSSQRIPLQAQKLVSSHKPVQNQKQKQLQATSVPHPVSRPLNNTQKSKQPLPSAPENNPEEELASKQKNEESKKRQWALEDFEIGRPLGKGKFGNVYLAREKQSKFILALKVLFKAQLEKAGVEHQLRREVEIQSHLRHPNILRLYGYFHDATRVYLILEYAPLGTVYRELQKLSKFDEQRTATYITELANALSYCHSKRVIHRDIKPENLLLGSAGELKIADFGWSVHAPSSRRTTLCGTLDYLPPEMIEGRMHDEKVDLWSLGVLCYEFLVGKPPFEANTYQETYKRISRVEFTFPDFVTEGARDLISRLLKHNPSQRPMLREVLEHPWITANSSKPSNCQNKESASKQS
# [20] = molecular target: High affinity nerve growth factor receptor (Homo sapiens, UniProt P04629); experiment: Inhibition of recombinant TrKa at 10 uM preincubated for 15 mins by HTRF assay
# Sequence of High affinity nerve growth factor receptor (P04629 33-796 limits assumed): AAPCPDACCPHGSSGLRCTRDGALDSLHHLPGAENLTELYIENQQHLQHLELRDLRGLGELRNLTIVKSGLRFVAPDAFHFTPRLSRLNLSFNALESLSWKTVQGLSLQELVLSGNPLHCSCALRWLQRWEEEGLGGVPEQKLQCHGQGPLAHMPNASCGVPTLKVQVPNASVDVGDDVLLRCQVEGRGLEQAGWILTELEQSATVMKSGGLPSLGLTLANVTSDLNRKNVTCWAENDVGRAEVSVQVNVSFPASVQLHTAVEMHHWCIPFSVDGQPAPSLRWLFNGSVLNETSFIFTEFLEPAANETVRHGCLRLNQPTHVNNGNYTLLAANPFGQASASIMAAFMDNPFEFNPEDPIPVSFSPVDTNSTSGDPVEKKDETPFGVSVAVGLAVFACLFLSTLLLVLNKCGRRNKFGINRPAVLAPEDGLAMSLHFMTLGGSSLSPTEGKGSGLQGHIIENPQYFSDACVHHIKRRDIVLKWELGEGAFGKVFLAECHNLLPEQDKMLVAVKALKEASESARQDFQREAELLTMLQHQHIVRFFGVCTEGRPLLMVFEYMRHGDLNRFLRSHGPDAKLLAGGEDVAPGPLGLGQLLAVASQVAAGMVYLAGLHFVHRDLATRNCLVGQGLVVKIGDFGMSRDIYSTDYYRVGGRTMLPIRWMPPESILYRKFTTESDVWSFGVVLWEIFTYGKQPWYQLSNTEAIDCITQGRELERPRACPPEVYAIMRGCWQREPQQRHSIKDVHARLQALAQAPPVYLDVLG
# [21] = system: Hepatocyte growth factor receptor (Homo sapiens), P08581 [M1250T]; experiment: Inhibition of recombinant Met M1250T mutant at 10 uM preincubated for 15 mins by HTRF assay
# [22] = molecular target: Epidermal growth factor receptor (Homo sapiens) (UniProt P00533); experiment: Inhibition of recombinant EGFR at 10 uM preincubated for 15 mins by HTRF assay
# [23] = molecular target: Phosphatidylinositol 4,5-bisphosphate 3-kinase catalytic subunit gamma isoform (Homo sapiens) (UniProt P48736); experiment: Inhibition of human PI3Kgamma at 10 uM preincubated for 15 mins by HTRF assay
# [24] = molecular target: Insulin receptor (Homo sapiens) (UniProt P06213); experiment: Inhibition of insulin receptor at 10 uM preincubated for 15 mins by HTRF assay
# [25] = molecular target: Hepatocyte growth factor receptor (Homo sapiens) (UniProt P08581); experiment: Inhibition of recombinant c-met at 10 uM preincubated for 15 mins by HTRF assay
SMILES,IC50 [2] [µM],IC50 [4] [µM],IC50 [5] [µM],IC50 [6] [µM],IC50 [7] [µM],IC50 [8] [µM],IC50 [10] [µM],Residual activity [9] [%],Selectivity ratio [11],IC50 [1] [µM],also measured
O=C1Nc2ccc(Cl)cc2/C1=C1/Nc2ccc(O)cc2/C1=N/O,10.7,12.2,0.00527,10.2,5.14,2.92,16.4,90,,3.51,
O=C1Nc2ccc(Cl)cc2/C1=C1/Nc2ccc(Cl)cc2/C1=N/O,6.14,17.2,0.0111,11.9,2.57,12.2,> 20,90,6,1.86,
O=C1Nc2ccc(OC(F)(F)F)cc2/C1=C1/Nc2ccc(O)cc2/C1=N/O,4.23,5.91,0.00832,5.81,2.96,2.28,16.9,90,,2.25,
O=C1Nc2ccc(OC(F)(F)F)cc2/C1=C1/Nc2ccc(Cl)cc2/C1=N/O,4.23,> 20,0.0762,2.83,2.71,17.7,> 20,,6,3.79,Activity [3]: inactive; Activity [9]: inactive
O=C1Nc2ccc(F)cc2/C1=C1/Nc2ccc(F)cc2/C1=N/O,6.57,15.9,0.00183,13.2,2.23,8.62,10.3,90,6,13.5,
O=C1Nc2ccc(F)cc2/C1=C1/Nc2ccc(O)cc2/C1=N/O,2.61,1.42,0.00225,4.62,2.11,0.68,4.09,90,,1.66,
O=Nc1c(-c2c(O)[nH]c3ccc([N+](=O)[O-])cc23)[nH]c2ccccc12,,,0.00735,,,,,,,,solubility [12]: < 100 µg/mL; solubility [13]: < 100 µg/mL; solubility [14]: Insoluble; solubility [15]: < 100 µg/mL
O=C1Nc2ccc(F)cc2/C1=C1/Nc2ccc(Cl)cc2/C1=N/O,3.52,14.7,0.0101,3.62,2.28,3.62,18.9,90,6,1.72,
O=C1Nc2ccc(OC(F)(F)F)cc2/C1=C1/Nc2ccc(F)cc2/C1=N/O,4.12,1.53,0.0603,3.81,1.89,3.95,19.9,90,6,1.51,
O=C1Nc2ccc(Cl)cc2/C1=C1/Nc2ccc(F)cc2/C1=N/O,7.13,7.14,0.00801,9.11,6.32,5.33,> 20,90,6,3.31,

# Further lines, with some results ahead:
IC50 [2] [µM],IC50 [4] [µM],IC50 [5] [µM],IC50 [6] [µM],IC50 [7] [µM],IC50 [8] [µM],IC50 [10] [µM],Residual activity [9] [%],Selectivity ratio [11],SMILES,IC50 [1] [µM],also measured
> 20,> 20,2.95,> 20,> 20,> 20,> 20,,,COc1ccc2c(c1)C(=N/O)/C(=C1/C(=O)Nc3ccc([N+](=O)[O-])cc31)N2,> 20,inhibition [3]: inactive; inhibition [9]: inactive
8.79,> 20,,5.18,12.7,> 20,> 20,90,,Cc1ccc2c(c1)C(=N/O)/C(=C1/C(=O)Nc3ccc(Cl)cc31)N2,18.8,
10.5,> 20,,10.6,11.5,> 20,> 20,90,,Cc1ccc2c(c1)C(=N/O)/C(=C1/C(=O)Nc3ccc(F)cc31)N2,> 20,
> 20,5.29,4.12,> 20,13.6,4.84,6.71,,,COc1ccc2c(c1)C(=N/O)/C(=C1/C(=O)Nc3ccc(F)cc31)N2,3.59,Activity [3]: inactive; Activity [9]: inactive
13.2,> 20,8.62,20,> 20,> 20,> 20,,,COc1ccc2c(c1)C(=N/O)/C(=C1/C(=O)Nc3ccc(OC(F)(F)F)cc31)N2,> 20,Activity [3]: inactive; Activity [9]: inactive
1.06,0.81,0.00868,2.11,1.06,3.92,> 20,90,7,Cc1ccc2c(c1)C(=N/O)/C(=C1/C(=O)Nc3ccc([N+](=O)[O-])cc31)N2,1.41,
0.95,0.77,,1.16,1.14,1.45,16.9,,,O=C1Nc2ccc([N+](=O)[O-])cc2/C1=C1/Nc2ccc(Br)cc2/C1=N/O,0.45,solubility [12]: < 100 µg/mL; solubility [13]: < 100 µg/mL; solubility [14]: Insoluble; solubility [15]: < 100 µg/mL
0.91,0.46,0.00171,0.92,0.94,0.64,0.57,90,6,O=C1Nc2ccc([N+](=O)[O-])cc2/C1=C1/Nc2ccc(F)cc2/C1=N/O,0.28,
0.51,0.56,0.0235,1.11,1.16,1.25,15.6,90,8,O=C1Nc2ccc([N+](=O)[O-])cc2/C1=C1/Nc2ccc(Cl)cc2/C1=N/O,0.33,inhibition [16]: inactive; inhibition [17]: inactive; inhibition [18]: inactive; inhibition [19]: inactive; inhibition [20]: inactive; inhibition [21]: inactive; inhibition [22]: inactive; inhibition [23]: inactive; inhibition [24]: inactive; inhibition [25]: inactive
7.31,> 20,,8.13,> 20,> 20,> 20,90,,Cc1ccc2c(c1)C(=N/O)/C(=C1/C(=O)Nc3ccc(OC(F)(F)F)cc31)N2,> 20,
